Experimental data: ChEMBL document CHEMBL1133759, “6beta-Acyloxy(nor)tropanes: affinities for antagonist/agonist binding sites on transfected and native muscarinic receptors” (J Med Chem, 2000)

Tests used:
[1] = target: T1, Muscarinic acetylcholine receptor M1 (Homo sapiens) (UniProt P11229); details: CHO; at 100 µM
T1 sequence (whole entry): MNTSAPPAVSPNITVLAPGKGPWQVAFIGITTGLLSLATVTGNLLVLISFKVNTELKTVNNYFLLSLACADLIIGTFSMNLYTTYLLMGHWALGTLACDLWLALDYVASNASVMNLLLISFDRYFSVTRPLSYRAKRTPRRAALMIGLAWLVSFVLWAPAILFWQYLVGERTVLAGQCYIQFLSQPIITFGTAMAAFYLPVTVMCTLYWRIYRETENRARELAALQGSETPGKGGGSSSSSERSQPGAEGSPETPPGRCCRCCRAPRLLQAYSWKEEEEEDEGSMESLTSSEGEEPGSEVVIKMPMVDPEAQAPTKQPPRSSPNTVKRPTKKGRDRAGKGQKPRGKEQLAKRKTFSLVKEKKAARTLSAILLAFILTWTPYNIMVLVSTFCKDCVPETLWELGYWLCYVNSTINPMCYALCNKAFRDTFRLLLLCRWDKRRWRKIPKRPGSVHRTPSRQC
Description: Inhibition of binding of [3H]- quinuclidinyl benzilate to Muscarinic acetylcholine receptor M1 in membranes of CHO cells at 100 uM compound concentration

[2] = target: T2, Muscarinic acetylcholine receptor M1 (Homo sapiens, UniProt P11229); experiment: Inhibition of [3H]- oxotremorine-M binding to human Muscarinic acetylcholine receptor M1 expressed in CHO cell membranes; format: cell-based
T2 sequence (P11229 whole entry): T1 sequence (whole entry)

[3] = target: T3, Muscarinic acetylcholine receptor M3 (Homo sapiens, UniProt P20309); format: cell membranes, CHO
Target sequence in this assay (P20309 whole entry): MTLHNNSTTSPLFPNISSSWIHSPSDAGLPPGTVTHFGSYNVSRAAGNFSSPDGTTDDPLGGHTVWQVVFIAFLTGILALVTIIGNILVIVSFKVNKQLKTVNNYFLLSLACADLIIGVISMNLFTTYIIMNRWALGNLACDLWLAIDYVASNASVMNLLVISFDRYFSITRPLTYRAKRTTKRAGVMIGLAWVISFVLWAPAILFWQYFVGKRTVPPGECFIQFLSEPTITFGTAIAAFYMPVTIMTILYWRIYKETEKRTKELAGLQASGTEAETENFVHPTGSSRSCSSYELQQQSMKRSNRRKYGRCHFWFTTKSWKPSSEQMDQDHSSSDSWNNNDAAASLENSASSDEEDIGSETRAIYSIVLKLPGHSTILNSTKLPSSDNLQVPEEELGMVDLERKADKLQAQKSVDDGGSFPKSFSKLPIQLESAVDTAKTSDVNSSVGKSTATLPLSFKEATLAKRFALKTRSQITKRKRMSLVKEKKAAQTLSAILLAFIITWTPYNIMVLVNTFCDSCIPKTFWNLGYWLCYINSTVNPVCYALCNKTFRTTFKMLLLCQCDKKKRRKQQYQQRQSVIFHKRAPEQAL

[4] = target: T4, Muscarinic acetylcholine receptor M4 (Homo sapiens, UniProt P08173); format: cell membranes, CHO
T4 sequence (P08173 whole entry): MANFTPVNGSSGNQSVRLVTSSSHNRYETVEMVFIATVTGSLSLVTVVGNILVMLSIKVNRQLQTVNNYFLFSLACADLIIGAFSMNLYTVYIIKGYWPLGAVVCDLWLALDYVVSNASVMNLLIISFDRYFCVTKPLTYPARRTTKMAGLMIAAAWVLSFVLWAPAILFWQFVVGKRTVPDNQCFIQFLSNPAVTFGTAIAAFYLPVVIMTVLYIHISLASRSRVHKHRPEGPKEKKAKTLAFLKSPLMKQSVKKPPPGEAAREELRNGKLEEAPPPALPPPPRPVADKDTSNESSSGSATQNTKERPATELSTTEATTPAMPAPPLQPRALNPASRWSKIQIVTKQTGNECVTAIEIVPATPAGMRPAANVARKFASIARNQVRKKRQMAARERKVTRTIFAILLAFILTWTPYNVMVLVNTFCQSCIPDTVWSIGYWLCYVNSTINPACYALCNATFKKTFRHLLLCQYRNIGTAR

[5] = target: T5, Muscarinic acetylcholine receptor M2 (Homo sapiens, UniProt P08172); experiment: Inhibition of [3H]- oxotremorine-M binding to human Muscarinic acetylcholine receptor M2 expressed in CHO cell membranes
T5 sequence (P08172 whole entry): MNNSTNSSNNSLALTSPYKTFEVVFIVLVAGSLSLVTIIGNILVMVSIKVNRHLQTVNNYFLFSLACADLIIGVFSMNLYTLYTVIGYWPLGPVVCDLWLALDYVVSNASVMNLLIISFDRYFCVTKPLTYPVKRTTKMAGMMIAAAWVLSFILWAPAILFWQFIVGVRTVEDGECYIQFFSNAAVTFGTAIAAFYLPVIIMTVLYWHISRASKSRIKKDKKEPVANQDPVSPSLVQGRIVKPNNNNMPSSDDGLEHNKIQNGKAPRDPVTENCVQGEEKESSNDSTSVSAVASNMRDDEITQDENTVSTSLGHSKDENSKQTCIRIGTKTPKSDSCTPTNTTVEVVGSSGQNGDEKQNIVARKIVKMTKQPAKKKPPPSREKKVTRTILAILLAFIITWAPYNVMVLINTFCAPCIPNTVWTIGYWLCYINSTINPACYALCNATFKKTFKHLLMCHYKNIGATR

[6] = target: T4, Muscarinic acetylcholine receptor M4; experiment: Inhibition of [3H]- oxotremorine-M binding to human Muscarinic acetylcholine receptor M4 in CHO cell membranes
[7] = Ratio of affinity versus antagonist [3H]-QNB divided by affinity versus agonist [3H]OXO-M; format: functional
[8] = target: Muscarinic acetylcholine receptor; experiment: The binding affinity was measured as inhibition of binding of [3H]- oxotremorine-M to muscarinic acetylcholine receptor in rat cerebral cortical membranes.; format: cell membranes, Membrane
[9] = target: T5, Muscarinic acetylcholine receptor M2; format: cell membranes, CHO
[10] = target: T2, Muscarinic acetylcholine receptor M1; experiment: The binding affinity was measured as inhibition of binding of [3H]- quinuclidinyl benzilate to Muscarinic acetylcholine receptor M1 in membranes of CHO cells; format: cell membranes
[11] = target: Muscarinic acetylcholine receptor; format: cell membranes, Rattus norvegicus, Membrane
[12] = target: T3, Muscarinic acetylcholine receptor M3; experiment: The binding affinity was measured as inhibition of binding of [3H]- quinuclidinyl benzilate to m3 Muscarinic acetylcholine receptor M3 in membranes of CHO cells; format: cell membranes
Target sequence in this assay (P20309 whole entry): as the sequence (P20309 whole entry) above

[13] = target: Muscarinic acetylcholine receptor
Description: Inhibition of [3H]- quinuclidinyl benzilate binding to Muscarinic acetylcholine receptor of rat heart membranes.

[14] = target: Muscarinic acetylcholine receptor; remark: listed apart in the source
[15] = target: T1, Muscarinic acetylcholine receptor M1 (Homo sapiens); details: CHO
[16] = target: T1, Muscarinic acetylcholine receptor M1 (Homo sapiens); experiment: Inhibition of binding of [3H]- quinuclidinyl benzilate to Muscarinic acetylcholine receptor M1 in membranes of CHO cells at 100 uM; format: cell membranes
[17] = target: Muscarinic acetylcholine receptor; experiment: The binding affinity was measured as inhibition of binding of [3H]- quinuclidinyl benzilate to Muscarinic acetylcholine receptor; format: protein assay
[18] = target: T3, Muscarinic acetylcholine receptor M3; details: CHO; at 100 µM
Target sequence in this assay (P20309 whole entry, looked up): as the sequence (P20309 whole entry) above
Description: Inhibition of binding of [3H]- quinuclidinyl benzilate to Muscarinic acetylcholine receptor M3 in membranes of CHO cells at 100 uM compound concentration

| Compound | Ki [2] | Ki [4] | Ki [5] | Ki [6] | Ratio [7] | Ki [8] | Ki [9] | Ki [11] | further results |
| --- | --- | --- | --- | --- | --- | --- | --- | --- | --- |
| CCC(=O)OC1CC2CCCC1N2C (stereo not given) | 230 nM | 960 nM | 1200 nM | 1400 nM | > 70 | 1500 nM | 2400 nM | – | inhibition [1]: 46%; Ki [3]: 7400 nM |
| O=C(OC1CC2CCCC1N2)c1ccc([N+](=O)[O-])cc1 (stereo not given) | 29 nM | 48 nM | 310 nM | 450 nM | 5.1 | 430 nM | 360 nM | 2200 nM | Ki [10]: 780 nM; Ki [12]: 450 nM |
| CN1C2CCCC1C(OC(=O)c1ccccc1)C2 (stereo not given) | 270 nM | 410 nM | 1300 nM | 910 nM | 2.1 | 860 nM | 260 nM | 1800 nM | Ki [10]: 7700 nM; Ki [3]: 3200 nM; Ki [13]: 1400 nM; Ki [14]: 790 nM |
| CC(=O)OC1CC2CCCC1N2C (stereo not given) | 2300 nM | – | 4400 nM | 900 nM | 330 | 860 nM | – | 280000 nM | inhibition (at 100uM) [15]: 11%; Ki [13]: 17000 nM; Ki [14]: 92 nM |
| CN(C)C(=O)OC1CC2CCCC1N2C (stereo not given) | – | – | – | – | > 60 | – | – | – | – |
| CCC(=O)OC1CC2CCCC1N2 (stereo not given) | 190 nM | 660 nM | 190 nM | 85 nM | 1100 | 30 nM | 3100 nM | 32000 nM | Ki [3]: 11400 nM; inhibition [16]: 36% |
| COc1ccc(C(=O)OC2CC3CCCC2N3)cc1 (stereo not given) | – | – | – | – | > 60 | 1700 nM | – | – | – |
| CS(=O)(=O)OC1CC2CCCC1N2 (stereo not given) | – | – | – | – | > 100 | 2700 nM | – | – | – |
| CCCC(=O)OC1CC2CCCC1N2 (stereo not given) | – | – | – | – | 190 | 160 nM | – | 30000 nM | – |
| CN1C2CCCC1C(OC(=O)C1CCCCC1)C2 (stereo not given) | 450 nM | 300 nM | 1600 nM | 700 nM | 13 | 860 nM | 730 nM | 8500 nM | Ki [10]: 7000 nM; Ki [3]: 3000 nM |
| CN1C2CCCC1C(OC(=O)c1ccc([N+](=O)[O-])cc1)C2 (stereo not given) | – | – | – | – | > 10 | 14000 nM | – | – | – |
| CC(=O)OC1CC2CCCC1N2 (stereo not given) | 4.6 nM | – | 7 nM | 4 nM | 11000 | 2 nM | – | – | Ki [17]: 22000 nM; Ki [13]: 400 nM; Ki [14]: 0.95 nM |
| COc1ccc(C(=O)OC2CC3CCCC2N3C)cc1 (stereo not given) | – | – | – | – | > 15 | 7300 nM | – | – | – |
| CN1C2CCCC1C(OS(C)(=O)=O)C2 (stereo not given) | – | – | – | – | > 100 | 2200 nM | – | – | – |
| CN(C)C(=O)OC1CC2CCCC1N2 (stereo not given) | – | – | – | – | > 60 | 1700 nM | – | – | – |
| O=C(OC1CC2CCCC1N2)C1CCCCC1 (stereo not given) | 970 nM | 840 nM | 9000 nM | 2200 nM | 13 | 1900 nM | 3600 nM | 25000 nM | Ki [10]: 20000 nM; Ki [3]: 7500 nM |
| CN1C2CCCC1C(OC(=O)Nc1ccccc1)C2 (stereo not given) | – | – | – | – | > 20 | 5100 nM | – | – | – |
| COc1ccccc1C(=O)OC1CC2CCCC1N2 (stereo not given) | – | – | – | – | 19 | 2800 nM | – | 53000 nM | – |
| O=C(OC1CC2CCCC1N2)c1ccccc1 (stereo not given) | 120 nM | 190 nM | 1700 nM | 500 nM | 1.2 | 650 nM | 300 nM | 800 nM | Ki [10]: 2800 nM; Ki [3]: 1300 nM; Ki [13]: 1400 nM; Ki [14]: 440 nM |
| CCCC(=O)OC1CC2CCCC1N2C (stereo not given) | – | – | – | – | 28 | 1200 nM | – | 34000 nM | – |
| O=C1CCCN1CC#CCN1CCCC1 [OXOTREMORINE] | 17 nM | 160 nM | 38 nM | 1.5 nM | 4500 | 13 nM | 660 nM | 58000 nM | inhibition [1]: 9%; inhibition [18]: 28%; Ki [13]: 330 nM; Ki [14]: 6 nM |
| COc1ccccc1C(=O)OC1CC2CCCC1N2C (stereo not given) | – | – | – | – | 22 | 1400 nM | – | 31000 nM | – |
| CN1C2CCCC1C(OC(=O)OCC(Cl)(Cl)Cl)C2 (stereo not given) | 1000 nM | 42 nM | 920 nM | 2300 nM | 31 | 720 nM | 820 nM | 23000 nM | Ki [10]: 27000 nM; Ki [3]: 6700 nM |
| C[C@@H]1O[C@H](C[N+](C)(C)C)C[C@H]1O [MUSCARINE] | – | 1400 nM | – | 23 nM | – | – | – | – | inhibition [1]: 2%; inhibition [18]: 28% |
| O=C(Nc1ccccc1)OC1CC2CCCC1N2 (stereo not given) | – | – | – | – | > 25 | 4300 nM | – | – | – |
